Laboratory results from patent US20140094413A1, “HEPATOCYTE GROWTH FACTOR (HGF) MIMICS AS THERAPEUTIC AGENTS” (WASHINGTON STATE UNIVERSITY, priority 2012, published 2014).
Several values for one entry are separate records, joined by “and”; a condition that tells them apart may be missing. Equal values may be shown once. Entries after “also recorded” stand apart in the source; their conditions may differ. Where a SMILES comes first, the peptide text is derived from it. [ ]: non-standard residue; d: D form. The star is where a group is joined. Hexanoyl = CCCCCC(=O)*; Ahx = NCCCCCC(=O)O

Legend:
[1] = Dihexa plasma levels after IV infusion; type: in vivo, rat
Protocol: FIG. 46. Dihexa plasma levels after intravascular (IV) infusion. Dihexa was administered to adult male Sprague Dawley rats at 10 mg/kg. Plasma sample were collected and analyzed by HPLC-MS. Plasma data were modeled by non-compartmental analysis using WinNonlin® software.

[2] = tested on: Dissociated hippocampal neurons; experiment: Neuroprotection from growth factor deprivation; type: cell-based; conditions: starved 72 hrs +/−HGF 5 ng/ml; Dihexa 10^−10 M and 10^−8M
Protocol: FIG. 39. […] Dissociated hippocampal neurons were starved for 72 hrs+/−HGF at sub-threshold concentrations 5 ng/ml and or Dihexa at 2 different concentrations 10^−10 M and 10^−8M. (**p<0.001,***p<0.0001; Mean+/−SEM).

[3] = Phase I metabolism of Dihexa; type: in vitro ADME
[4] = tested on: CA1 neurons in coronal slices of rat hippocampus; experiment: Hippocampal long-term potentiation with theta burst stimulation; type: cell-based; conditions: Dihexa 1 μM applied 10 minutes prior to TBS
Protocol: FIG. 45. Effect of Dihexa (Hex) on hippocampal long-term potentiation (LTP) generated with theta burst (TBS) stimulation. LTP was monitored at CA1 neurons in coronal slices of rat hippocampus. Dihexa (1 μM) was applied 10 minutes prior to TBS. 1N=4. Dihexa application augmented LTP.

[5] = Brain distribution of 3H-Dihexa after carotid infusion; type: in vivo, rat
Protocol: FIG. 44. […] Rats fitted with a carotid cannula were anesthetized and infused with 0.5 ml of isotonic saline containing 10 μCi of 3H-Dihexa and 2 μCi ^14C-Inulin, a vascular marker. Thirty minutes after infusion rats were decapitated, the brains removed, and various brain regions dissected. The tissues were then weighed and solubilized with NCS and 10 ml of scintillation was added. Samples were counted with a scintillation counter using two different windows to quantitate both ^3H and ^14C counts. ^3H/^14Cs were determined so that blood derived Dihexa contamination of tissues could be determined. The average ^3H/^14C from blood was 1687.

[6] = tested on: Dissociated hippocampal neurons; experiment: Neuroprotection from oxidative stress (H2O2); type: cell-based; conditions: 100 μM H2O2 24 hrs +/−HGF 5 ng/ml; Dihexa 10^−10 M and 10^−8M
Protocol: FIG. 40. […] Dissociated hippocampal neurons were treated with 100 μM H2O2 for 24 hrs+/−HGF at sub-threshold concentrations 5 ng/ml and or Dihexa at 2 different concentrations 10^−10 M and 10^−8M. (*p<0.05,**p<0.01).

[7] = Metabolic stability in rat serum; type: in vitro ADME
[8] = Toxicity observation during Dihexa studies; type: in vivo; conditions: studies lasting as long as 96 days
rats = experiment: Morris water maze with i.c.v. Dihexa and HGF antagonist Hinge; type: in vivo, rat; conditions: scopolamine treated rats
Blood stability studies = conditions: not shown
MDCK cells = experiment: Augmentation of HGF-dependent cell scattering in MDCK cells; type: cell-based, canine; conditions: with HGF, Dihexa 10^−10 M to 10^−14M, four days
Protocol: augmentation of HGF-dependent c-Met phosphorylation in HEK293 cells, or 2) augmentation of HGF-dependent cell scattering in MDCK cells. All the compounds in Family one were tested using the c-Met phosphorylation assay. […]
MDCK cells were grown to 100% confluency on the coverslips in six-well plates and washed twice with PBS. The confluent coverslips were then aseptically transferred to new six well plates containing 900 μl serum free DMEM. Norleual, Hinge peptide, and/or HGF (2.5 ng/ml) were added to appropriate wells. Control wells received PBS vehicle. […] Media was removed and cells were fixed with methanol. Cells were stained with Diff-Quik Wright-Giemsa (Dade-Behring, Newark, Del.) and digital images were taken. Coverslips were removed with forceps and more digital images were captured. Pixel quantification of images was achieved using Image J and statistics were performed using Prism 5 and InStat v.3.05.
MDCK cells were grown to 100% confluency on the coverslips in six-well plates and washed twice with PBS. The confluent coverslips were then aseptically transferred to new six well plates containing 900 μl serum free DMEM. Norleual, Hinge peptide, and/or HGF (20 ng/ml) were added to appropriate wells. Control wells received PBS vehicle. […] Pixel quantification of images was achieved using Image J and statistics were performed using Prism 5 and InStat v.3.05.

human HGF = target: T1, human HGF (Homo sapiens, UniProt P14210); experiment: HGF dimerization; type: biochemical; conditions: 30 minutes in the presence of heparin; N=6
T1 construct: purchased R&D Systems (Minneapolis, Minn.)

hippocampal neurons = experiment: Immunocytochemistry: correlation of spines with synaptic markers; type: cell-based, rat; conditions: HGF 10 ng/ml

T1 sequence (P14210 32-728): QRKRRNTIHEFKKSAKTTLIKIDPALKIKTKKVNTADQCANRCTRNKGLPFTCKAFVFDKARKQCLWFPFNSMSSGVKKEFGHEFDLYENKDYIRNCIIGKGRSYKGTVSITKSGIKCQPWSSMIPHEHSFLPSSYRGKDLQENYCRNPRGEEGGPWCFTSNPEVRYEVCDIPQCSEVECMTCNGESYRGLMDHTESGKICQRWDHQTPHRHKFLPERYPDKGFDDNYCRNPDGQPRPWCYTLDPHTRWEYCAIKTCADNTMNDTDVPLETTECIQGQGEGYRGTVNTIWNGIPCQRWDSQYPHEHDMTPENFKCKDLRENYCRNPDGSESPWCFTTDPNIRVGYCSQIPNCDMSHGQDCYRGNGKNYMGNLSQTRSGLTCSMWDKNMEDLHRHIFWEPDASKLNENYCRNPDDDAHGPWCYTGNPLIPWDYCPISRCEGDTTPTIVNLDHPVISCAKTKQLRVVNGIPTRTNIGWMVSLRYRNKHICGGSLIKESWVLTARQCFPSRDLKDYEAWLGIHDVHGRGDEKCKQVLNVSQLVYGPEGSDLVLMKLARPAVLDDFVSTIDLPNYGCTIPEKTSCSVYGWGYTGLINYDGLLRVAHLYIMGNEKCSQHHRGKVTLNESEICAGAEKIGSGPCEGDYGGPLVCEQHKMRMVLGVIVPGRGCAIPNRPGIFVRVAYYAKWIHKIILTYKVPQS

Compound	Elimination (circulating) half-life t1/2 ([1]; IV 10 mg/kg, adult male Sprague Dawley rats, non-compartmental analysis, 10 mg/kg)	Excretion ([1]; urine)	Protection of neurons from growth factor deprivation [2]	Phase I metabolism [3]	Long-term potentiation [4]	Distribution into brain regions ([5]; thirty minutes after carotid infusion of 3H-Dihexa with 14C-Inulin)	Brain level relative to blood ([5]; thirty minutes after delivery) [× blood]	Average 3H/14C from blood ([5]; thirty minutes after infusion)	Protection of neurons from oxidative stress [6]	t1/2 in rat serum [7] [days]	Overt toxicity [8]	Mean latency to find the pedestal, day one (rats) [s]	Mean latency to find the pedestal, final day (day 8) (rats) [s]	Mean latency to find the pedestal, fourth day (rats) [s]	Time stable in the blood (Blood stability studies)	HGF-dependent MDCK cell scattering (MDCK cells)	HGF-dependent MDCK cell scattering (MDCK cells; listed as N-hexanoyl-Tyr-Ile-(6) aminohexamide)	HGF dimerization (human HGF)	Percent correlation of spines to Synapsin (hippocampal neurons) [%]	Mean number of spines per 50 μm dendrite length (hippocampal neurons; 5 days)
CCCCCC(=O)N[C@@H](Cc1ccc(O)cc1)C(=O)N[C@H](C(=O)NCCCCCC(N)=O)[C@@H](C)CC [Dihexa, N-hexanoic-Tyr-Ile-(6)-aminohexanoic amide] (Hexanoyl-Tyr-Ile-[Ahx]-NH2)	> 12 days and 12.68 days	excreted intact in the urine	protects neurons from growth factor deprivation	resistant to phase I metabolism; also recorded: undergoes little phase I metabolism	enhances LTP; also recorded: augmented LTP	concentrated in multiple brain regions	40	1687	protects neurons from oxidative stress	0.229	no overt toxicity	115.2	62.3	63.0	over 5 hours	stimulate MDCK cell scattering; also recorded: markedly stimulates cell scattering even at picomolar affinities	spectacularly augment HGF-dependent MDCK cell scattering	blocks HGF dimerization	–	–
HGF: Hepatocyte growth factor, recombinant, purchased from R&D Systems	–	–	–	–	–	–	–	–	–	–	–	–	–	–	–	–	–	–	98	33 spines per 50 μm dendrite length
